Measured values from US20130245026A1, “TREATMENT OF CANCER WITH TOR KINASE INHIBITORS” (SIGNAL PHARMACEUTICALS, LLC, priority 2012, published 2013).
pIC50: −log10 of the molar value. Read-outs that look alike come from different tables or passages of the source.

Tests used:
A253 [1] = assay: Growth inhibition assay for head and neck (HN) cancer cell lines; assay type: cell-based; details: Homo sapiens, 72 hours, Cell Titer-Glo
Protocol: (§1) Growth Inhibition Assay for Head and Neck (HN) Cancer Cell Lines.
(§2) A serial titration was performed to produce a working concentration range of 1.5 μM to 10 mM. Aliquots to produce final concentrations of 1.5 nM to 10 μM were spotted via an acoustic dispenser (EDC ATS-100) into an empty 384-well plate. […] The DMSO concentration was kept constant for a final assay concentration of 0.1% DMSO. Plates were replicated for use with different cell lines and testing periods. After compound plate replication, all plates were sealed (Agilent ThermoLoc) and stored at −20° C. for up to 1 month. […] When ready for testing, plates were removed from the freezer, thawed, and unsealed just prior to the addition of the test cells. Prior to testing, cells were grown and expanded in culture flasks to provide sufficient amounts of starting material. Cells were then diluted to the appropriate densities and added directly to the compound-spotted 384-well plates. Cells were allowed to grow for 72 hours at 37° C./5% CO2. At the time when compound was added (t0), initial cell number was assessed via a viability assay (Cell Titer-Glo) by quantifying the level of luminescence generated by ATP present in viable cells. After 72 hours, cell viability of compound-treated cells was assessed via Cell Titer-Glo and luminescence measurement. […] A control cell line (the lung tumor cell line, A549) was included in each of the assays. The compound response against this control cell line was monitored closely to enable comparison of the data generated through the assay period. All data were normalized and presented as a percentage of the DMSO-treated cells. Results were then expressed as a GI50 value. The GI50 value corrects for the cell count at time zero.

BHY [2] = assay: as above; assay type: cell-based; details: 72 hours, Cell Titer-Glo
Protocol: as §1, §2

CAL-27 [3] = assay: as above; assay type: cell-based; details: Homo sapiens, 72 hours, Cell Titer-Glo
Protocol: as §1, §2

CAL-33 [4] = assay: as above; assay type: cell-based; details: Homo sapiens, 72 hours, Cell Titer-Glo
Protocol: as §1, §2

Detroit562 [5] = assay: as above; assay type: cell-based; details: Homo sapiens, Detroit 562, 72 hours, Cell Titer-Glo
Protocol: as §1, §2

FADU [6] = assay: as above; assay type: cell-based; details: Homo sapiens, 72 hours, Cell Titer-Glo
Protocol: as §1, §2

HN [7] = assay: as above; assay type: cell-based; details: 72 h
Protocol: as §1, §2

RPMI-2650 [8] = assay: as above; assay type: cell-based; details: Homo sapiens, 72 hours, Cell Titer-Glo
Protocol: as §1, §2

SCC-15 [9] = assay: as above; assay type: cell-based; details: Homo sapiens, 72 hours, Cell Titer-Glo
Protocol: as §1, §2

SCC-25 [10] = assay: as above; assay type: cell-based; details: Homo sapiens, 72 hours, Cell Titer-Glo
Protocol: as §1, §2

SCC-9 [11] = assay: as above; assay type: cell-based; details: Homo sapiens, 72 hours, Cell Titer-Glo
Protocol: as §1, §2

A253 [12] = assay: Apoptosis assay for HN cancer cell lines (Caspase 3/7-Glo); assay type: cell-based; details: 24 hours
Protocol: (§3) Apoptosis Assay for HN Cancer Cell Lines.
(§4) Prior to testing, cells were grown and expanded in culture flasks to provide sufficient amounts of starting material. Cells were then diluted to their desired densities and added directly to compound-spotted 384-well plates. Cells were allowed to grow for 24 hours in 5% CO2 at 37° C. The apoptotic response was assessed by quantifying the activities of caspase 3 and caspase 7 (Caspase 3/7-Glo) in treated cells and control cells at the 24-hour time point. All data was normalized and represented as a value relative to the DMSO-treated cells. Results were then expressed as CalX, which is the minimum compound concentration required to double the levels of caspase 3/7 relative to those of the DMSO-treated cells during their treatment period.

BHY [13] = assay: as above; assay type: cell-based; details: 24 hours
Protocol: as §3, §4

CAL-27 [14] = assay: as above; assay type: cell-based; details: 24 hours
Protocol: as §3, §4

CAL-33 [15] = assay: as above; assay type: cell-based; details: 24 hours
Protocol: as §3, §4

Detroit562 [16] = assay: as above; assay type: cell-based; details: 24 hours
Protocol: as §3, §4

FADU [17] = assay: as above; assay type: cell-based; details: 24 hours
Protocol: as §3, §4

HN [18] = assay: as above; assay type: cell-based; details: minimum concentration to double caspase 3/7 vs DMSO, 24 hours
Protocol: as §3, §4

RPMI-2650 [19] = assay: as above; assay type: cell-based; details: 24 hours
Protocol: as §3, §4

SCC-15 [20] = assay: as above; assay type: cell-based; details: 24 hours
Protocol: as §3, §4

SCC-25 [21] = assay: as above; assay type: cell-based; details: 24 hours
Protocol: as §3, §4

SCC-9 [22] = assay: as above; assay type: cell-based; details: 24 hours
Protocol: as §3, §4

[23] = test system: patient-derived tumor cells; assay: Proliferation assay using patient tumor cells (EdU incorporation, 3D matrix); assay type: cell-based; details: Homo sapiens
Protocol: (§5) Proliferation and Apoptosis Assay Using Patient Tumor Cells.
(§6) Cryopreserved patient-derived tumor cells were resurrected from liquid nitrogen storage and conditioned on coated plates prior to drug treatment. […] The mitotic activity of the cells was assessed by measuring ethynyl […] (EdU) incorporation during S-phase. The untreated control wells received medium containing DMSO (vehicle used to dissolve each compound and EdU). […] The apoptotic activity of the cells was assessed by measuring CellEvent incorporation due to caspase 3 and 7 activation. The untreated control wells received medium containing DMSO (vehicle used to dissolve each compound and CellEvent). After conditioning, cell lines were plated on a 3D matrix in two 96-well plates. The cells were allowed to settle and form spheroid structures for 48 hours. Then, 48 hours after plating, the cells were treated with compound.
The cells were treated only on Day 1. For the last 48 hours of the treatment, EdU was added to measure the cell proliferation. At the end of the treatment, plates were fixed, permeabilized and stained for EdU uptake (proliferation marker) and DAPI (nuclear marker). Plates were imaged at 4× magnification using ImageXpress Micro (Molecular Devices, Sunnyvale, Calif.). Seven z-stacks at 5 sites per well were captured and deconvoluted to create the images for analysis. For the proliferation assay, images were analyzed using a Multi Wave Scoring Algorithm (Molecular Devices, Sunnyvale, Calif.) to quantify mean fluorescent intensities (MFI) of each well for EdU. The EdU MFI's for the treated wells were normalized to those of the untreated wells to generate the compound response curves.

[24] = test system: patient-derived tumor cells; assay: Apoptosis assay using patient tumor cells (CellEvent, caspase 3 and 7); assay type: cell-based, human; details: concentration between 0.1-10 μM; 48 hours of treatment
Protocol: as §5, §6
The cells were treated only on Day 1. After 48 hours of compound treatment, CellEvent was added to measure the apoptotic activity in cells. […] For the Apoptosis assay, images were analyzed using a Multi Wavelength Scoring Algorithm (Molecular Devices, Sunnyvale, Calif.) to quantify mean fluorescent intensities (MFI) of each well for activated caspase 3 and 7 using CellEvent. The CellEvent mean fluorescence intensities (MFI) of treated wells and untreated controls were averaged and plotted.

[25] = corrected for cell count at time zero
[26] = Table 1, minimum concentration to double caspase 3/7 vs DMSO
[27] = minimum concentration to double caspase 3/7 vs DMSO

Compound: CCN1C(=O)CNc2ncc(-c3ccc(-c4nc[nH]n4)nc3C)nc21 [Compound 1, 1-ethyl-7-(2-methyl-6-(1H-1,2,4-triazol-3-yl)pyridin-3-yl)-3,4-dihydropyrazino[2,3-b]pyrazin-2(1H)-one]
- pIC50 (A253 [1]): 6.42
- GI50 (A253 [1]; [25]): 303 nM
- pIC50 (BHY [2]): 6.68
- GI50 (BHY [2]; [25]): 39.5 nM
- pIC50 (CAL-27 [3]): 6.75
- GI50 (CAL-27 [3]; [25]): 144 nM
- pIC50 (CAL-33 [4]): 7.16
- GI50 (CAL-33 [4]; [25]): 42.7 nM
- pIC50 (Detroit562 [5]): 6.60
- GI50 (Detroit562 [5]; [25]): 169 nM
- pIC50 (FADU [6]): 5.93
- GI50 (FADU [6]; [25]): 792 nM
- GI50 (HN [7]): 117 nM
- pIC50 (HN [7]): 6.75
- pIC50 (RPMI-2650 [8]): 6.41
- GI50 (RPMI-2650 [8]; [25]): 219 nM
- pIC50 (SCC-15 [9]): 6.17
- GI50 (SCC-15 [9]; [25]): 56.8 nM
- pIC50 (SCC-25 [10]): 6.75
- GI50 (SCC-25 [10]; [25]): 127 nM
- pIC50 (SCC-9 [11]): 6.44
- GI50 (SCC-9 [11]; [25]): 129 nM
- Cal X (A253 [12]; [26]): > 10 µM
- CalX (A253 [12]; [27]): >10 µM
- Cal X (BHY [13]; [26]): > 10 µM
- CalX (BHY [13]; [27]): >10 µM
- Cal X (CAL-27 [14]; [26]): > 10 µM
- CalX (CAL-27 [14]; [27]): >10 µM
- Cal_X (CAL-33 [15]; Table 1, minimum concentration to double caspase 3/7 vs DMSO, in µM): 0.8764
- CalX (CAL-33 [15]; [27]): 0.8764 µM
- Cal X (Detroit562 [16]; [26]): > 10 µM
- CalX (Detroit562 [16]; [27]): >10 µM
- Cal X (FADU [17]; [26]): > 10 µM
- CalX (FADU [17]; [27]): >10 µM
- CalX (HN [18]): >10 µM
- Cal X (RPMI-2650 [19]; [26]): > 10 µM
- CalX (RPMI-2650 [19]; [27]): >10 µM
- Cal X (SCC-15 [20]; [26]): > 10 µM
- CalX (SCC-15 [20]; [27]): >10 µM
- Cal X (SCC-25 [21]; [26]): > 10 µM
- CalX (SCC-25 [21]; [27]): >10 µM
- Cal X (SCC-9 [22]; [26]): > 10 µM
- CalX (SCC-9 [22]; [27]): >10 µM
- pIC50 ([23]; Unknown, Left palate, read-out: Prolif IC50): 6.26
- pIC50 ([23]; person, H&N carcinoma, Left superior segment, read-out: Prolif IC50): 6.59
- pIC50 ([23]; person, H&N carcinoma, Lung, read-out: Prolif IC50): 6.47
- pIC50 ([23]; person, Larynx carcinoma, Left side neck, read-out: Prolif IC50): 6.99
- pIC50 ([23]; person, Squamous carcinoma H&N, Neck, read-out: Prolif IC50): 5.77
- pIC50 ([23]; person, Squamous carcinoma H&N, Right lower lobe lung, read-out: Prolif IC50): 6.86
- pIC50 ([23]; person, Squamous carcinoma H&N, Right nasal, read-out: Prolif IC50): 6.62
- pIC50 ([23]; person, Squamous cell H&N, Cervical lymph node, read-out: Prolif IC50): 6.84
- pIC50 ([23]; person, Squamous cell H&N, Left chest wall, read-out: Prolif IC50): 6.81
- pIC50 ([23]; person, Squamous cell H&N, Left neck lymph node, read-out: Prolif IC50): 6.30
- pIC50 ([23]; person, Squamous cell H&N, Left neck, cervical, read-out: Prolif IC50): 6.37
- pIC50 ([23]; person, Squamous cell H&N, Left tonsil, read-out: Prolif IC50): 6.79
- pIC50 ([23]; person, Squamous cell H&N, Mass, left latisimal muscle, read-out: Prolif IC50): 6.94
- pIC50 ([23]; person, Squamous cell H&N, Mass, skull base excision, read-out: Prolif IC50): 6.80
- pIC50 ([23]; person, Squamous cell H&N, Pleural fluid, read-out: Prolif IC50): 6.27
- pIC50 ([23]; person, Squamous cell H&N, Right lower lobe lung, read-out: Prolif IC50): 6.49
- pIC50 ([23]; person, Squamous cell H&N, Right pleural biopsy, read-out: Prolif IC50): 6.36
- pIC50 ([23]; person, Squamous cell tongue, Right axilliary node, read-out: Prolif IC50): 6.50
- pIC50 ([23]; person, Tongue, Left neck mass, read-out: Prolif IC50): 6.42
- pIC50 ([23]; span over all patient tumor cell samples of Table 3, read-out: inhibition of proliferation of patient tumor cells, IC50): 5.74 to 7.00
- apoptosis (activated caspase 3 and 7, CellEvent MFI) [24]: Apoptosis was observed in some patient-derived samples
